Data on five compounds can be found in ChEMBL document CHEMBL1143233, “Synthesis, characterization and evaluation of benzimidazole derivative and its precursors as inhibitors of MDA-MB-231 human breast cancer cell proliferation” (2008).

This test has as its system MDA-MB-231. Kind of test: Antiproliferative activity against human MDA-MB-231 cells at 2 mM after 72 hrs by MTS/PMS assay. The note with it: MDA-MB-231, 72 h.

One may read the inhibition as the share of the control response that was lost under treatment. Read a low inhibition as a weak effect.

On to `N#Cc1ccc(NC(=O)c2ccc(NCc3ccc(F)cc3)c([N+](=O)[O-])c2)cc1C(F)(F)F`, for which the inhibition at 2000 µM was found to be 0%.

Regarding `N#Cc1ccc(NC(=O)c2ccc3c(c2)nc(-c2ccc(Cl)cc2Cl)n3Cc2ccc(F)cc2)cc1C(F)(F)F`, at 2000 µM the inhibition was 26.1%.

In turn, `N#Cc1ccc(NC(=O)c2ccc(NCc3ccc(F)cc3)c(NC(=O)c3ccc(Cl)cc3Cl)c2)cc1C(F)(F)F` returned an inhibition at 2000 µM of 0%.

Consider `N#Cc1ccc(NC(=O)c2ccc(NCc3ccc(F)cc3)c(N)c2)cc1C(F)(F)F`, for which the inhibition at 2000 µM amounted to 9.8%.

`N#Cc1ccc(NC(=O)c2ccc(F)c([N+](=O)[O-])c2)cc1C(F)(F)F` had an inhibition at 2000 µM of 60%.
